*1 amine or outer side, *2 acyl side, *3 side chain or, on linkers, in order; H or OH if unused. Where a SMILES comes first, the peptide text is derived from it. Bridges are numbered along the chain shown (N, C = ends). [ ]: non-standard residue; d: D form. The star is where a group is joined. C20 diacid = O=C(O)CCCCCCCCCCCCCCCCCCC(=O)*; γGlu = O=C(O)[C@H](CCC(=O)[*:2])N[*:1]; Hyp = O=C(O)[C@@H]1C[C@@H](O)CN1; NMeI = CC[C@H](C)[C@H](NC)C(=O)O; Aad = N[C@@H](CCCC(=O)O)C(=O)O; Sar = CNCC(=O)O
Key:
[1] = Assessment of physical stability (Thioflavin T fibrillation); assay type: physicochemical; set-up: key: FND = fibrillation not detected; FD = fibrillation detected; conditions: 1 mg/ml, 40° C., ThT; for Fibrillation pH 4.0 (Ac): 50 mM acetate buffer pH 4.0, 96 hours; for Fibrillation pH 7.0 (His): 50 mM histidine buffer pH 7.0, 96 hours; for Fibrillation pH 7.0 (Phos.): 50 mM phosphate buffer pH 7.0, 96 hours
How it was run: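 1 mg/ml peptide with 40 μM ThT in 50 mM phosphate pH 7.0, 50 mM histidine pH 7.0 or 50 mM acetate pH 4.0, in triplicate. Fluorescence read every 10 min after 300 s agitation over 96 h at 40 °C. Lag-time (h) is the intersection of linear fits to stable and growth phases.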

Sprague Dawley rats = test: Oral glucose tolerance test (OGTT) in rats; assay type: in vivo, rat; conditions: fasted rats, 30 nmol/kg sc 16 hours before oral glucose bolus 2 g/kg
Experimental: Male Sprague Dawley rats [Crl:CD(SD), weight range 260-280 g upon arrival] were housed in groups of 2 (n=2) or 3 (n=3). The animals were maintained on a 12 h/12 h light/dark cycle. Animals had access ad libitum to a standard chow diet and tap water (domestic quality tap water) during the initial one week acclimatization period.
Fasted rats (fasted for 7 hours) were employed in the test. Rats had previously been randomized into two groups, designated test group and control group, respectively. The total number of animals per group was 10 (n=10).
A single subcutaneous injection of either vehicle (control group; vehicle: 50 mM histidine buffer, pH 7, with 200 mM mannitol) or Compound 7 in vehicle [test group; dose 30 nmol/kg body weight (2 ml/kg)] was subsequently administered to each animal. All rats then received an oral glucose bolus (2 g/kg) 16 hours after vehicle or compound administration. Blood glucose levels in tail blood samples taken 20 min. before glucose administration (time zero, baseline) and then 15 min., 30 min., 60 min., 90 min., 120 min. and 180 min after glucose administration were determined using a glucometer (GlucoSmart Swing™; MSP Bodmann GmbH, Germany).
The data are presented as mean±S.E.M. The two-sided unpaired Student t-test was used for statistical comparison of the test group and the control group.

[2] = molecular target: T1, human amylin receptor 3 (hAMYR3), hCTR2 co-expressed with hRAMP3 (Homo sapiens, UniProt O60896+P30988); test: hAMYR3 cAMP assay (AlphaScreen) in COS7 cells; assay type: cell-based; conditions: cAMP induction, COS7 cells expressing hAMYR3; Table 1; read-out: hAMYR3 EC50
T1 construct: expressed in transfected cells
T1 sequence (P30988 25-474): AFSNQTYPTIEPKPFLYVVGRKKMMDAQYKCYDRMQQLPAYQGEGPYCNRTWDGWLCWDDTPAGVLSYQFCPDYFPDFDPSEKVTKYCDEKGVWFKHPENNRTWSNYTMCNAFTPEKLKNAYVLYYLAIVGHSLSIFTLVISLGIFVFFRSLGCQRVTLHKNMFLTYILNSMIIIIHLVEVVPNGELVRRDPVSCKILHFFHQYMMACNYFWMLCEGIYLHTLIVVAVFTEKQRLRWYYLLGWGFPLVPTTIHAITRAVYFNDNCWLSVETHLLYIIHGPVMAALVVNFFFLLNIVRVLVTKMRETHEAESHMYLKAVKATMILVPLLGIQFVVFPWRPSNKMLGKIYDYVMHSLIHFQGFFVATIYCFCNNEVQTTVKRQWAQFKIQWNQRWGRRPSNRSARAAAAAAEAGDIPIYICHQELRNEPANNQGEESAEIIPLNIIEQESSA
T1 sequence (O60896 24-148 partner): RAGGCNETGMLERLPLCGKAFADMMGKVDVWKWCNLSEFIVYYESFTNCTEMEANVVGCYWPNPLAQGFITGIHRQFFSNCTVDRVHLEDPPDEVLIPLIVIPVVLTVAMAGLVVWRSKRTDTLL
How it was run: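 Stable COS7 clone co-expressing hCTR2 and hRAMP3 was exposed to increasing peptide concentrations in Tyrode buffer (pH 7.4) with 100 µM IBMX and 0.1% casein for 15 min at 37 °C. Lysate cAMP was measured by AlphaScreen; EC50 came from 4-parameter logistic fitting.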

SMILES	Fibrillation pH 4.0 (Ac) [1]	Fibrillation pH 7.0 (His) [1]	Fibrillation pH 7.0 (Phos.) [1]	Glucose AUC, t = 15-180 min.; mean ± S.E.M. (Sprague Dawley rats) [mmol·min/L]	EC50 [2] [nM]
CC[C@H](C)[C@@H](C(=O)N[C@@H](CC(C)C)C(=O)N[C@@H](CO)C(=O)N[C@@H](CO)C(=O)N[C@H](C(=O)N[C@@H](CCC(=O)O)C(=O)N[C@H](C(=O)NCC(=O)N[C@@H](CO)C(=O)N[C@@H](CC(N)=O)C(=O)N[C@H](C(=O)N1C[C@H](O)C[C@H]1C(N)=O)[C@@H](C)O)C(C)C)[C@@H](C)O)N(C)C(=O)[C@H](C)NC(=O)CN(C)C(=O)[C@H](Cc1ccccc1)NC(=O)[C@H](CO)NC(=O)[C@H](CO)NC(=O)[C@H](CCCNC(=N)N)NC(=O)[C@H](CCC(N)=O)NC(=O)[C@H](CC(C)C)NC(=O)[C@H](Cc1ccccc1)NC(=O)[C@H](Cc1c[nH]cn1)NC(=O)[C@H](C)NC(=O)[C@H](CC(C)C)NC(=O)[C@H](CCCNC(=N)N)NC(=O)[C@H](CCC(=O)O)NC(=O)[C@@H](NC(=O)[C@H](C)NC(=O)[C@@H]1CSSC[C@H](NC(=O)[C@H](CCCNC(=N)N)NC(=O)CC[C@H](NC(=O)CCCCCCCCCCCCCCCCCCC(=O)O)C(=O)O)C(=O)NCC(=O)N[C@@H]([C@@H](C)O)C(=O)N[C@@H](C)C(=O)N[C@@H]([C@@H](C)O)C(=O)N1)[C@@H](C)O [Compound 7, [19CD]-isoGlu-R-C( )-GTAT-C( )-ATERLAHFLQRSSF-Gly(Me)-A-Ile(Me)-LSSTEVGSNT-Hyp-NH2] ({C20 diacid-γGlu}-RCGTATCATERLAHFLQRSSF[Sar]A[NMeI]LSSTEVGSNT[Hyp]-NH2; disulfide 2-7)	FND	FND	FND	122 ± 29	
CC[C@H](C)[C@@H](C(=O)N[C@@H](CC(C)C)C(=O)N[C@@H](CO)C(=O)N[C@@H](CO)C(=O)N[C@H](C(=O)N[C@@H](CCC(=O)O)C(=O)N[C@H](C(=O)NCC(=O)N[C@@H](CO)C(=O)N[C@@H](CC(N)=O)C(=O)N[C@H](C(=O)N1C[C@H](O)C[C@H]1C(N)=O)[C@@H](C)O)C(C)C)[C@@H](C)O)N(C)C(=O)[C@H](C)NC(=O)CN(C)C(=O)[C@H](Cc1ccccc1)NC(=O)[C@H](CO)NC(=O)[C@H](CO)NC(=O)[C@H](CCCNC(=N)N)NC(=O)[C@H](CCC(N)=O)NC(=O)[C@H](CC(C)C)NC(=O)[C@H](Cc1ccccc1)NC(=O)[C@H](CC(=O)O)NC(=O)[C@H](C)NC(=O)[C@H](CC(C)C)NC(=O)[C@H](CCCNC(=N)N)NC(=O)[C@H](CCC(N)=O)NC(=O)[C@@H](NC(=O)[C@H](C)NC(=O)[C@@H]1CSSC[C@H](NC(=O)[C@H](CCCNC(=N)N)NC(=O)CC[C@H](NC(=O)CCCCCCCCCCCCCCCCCCC(=O)O)C(=O)O)C(=O)N[C@@H](CC(N)=O)C(=O)N[C@@H]([C@@H](C)O)C(=O)N[C@@H](C)C(=O)N[C@@H]([C@@H](C)O)C(=O)N1)[C@@H](C)O [Compound 49, [19CD]-isoGlu-R-C( )-NTAT-C( )-ATQRLADFLQRSSF-Gly(Me)-A-Ile(Me)-LSSTEVGSNT-Hyp-NH2] ({C20 diacid-γGlu}-RCNTATCATQRLADFLQRSSF[Sar]A[NMeI]LSSTEVGSNT[Hyp]-NH2; disulfide 2-7)	FD	FND	FND		0.15
CC[C@H](C)[C@@H](C(=O)N[C@@H](CC(C)C)C(=O)N[C@@H](CO)C(=O)N[C@@H](CO)C(=O)N[C@H](C(=O)N[C@@H](CCC(=O)O)C(=O)N[C@H](C(=O)NCC(=O)N[C@@H](CO)C(=O)N[C@@H](CC(N)=O)C(=O)N[C@H](C(=O)N1C[C@H](O)C[C@H]1C(N)=O)[C@@H](C)O)C(C)C)[C@@H](C)O)N(C)C(=O)[C@H](C)NC(=O)CN(C)C(=O)[C@H](Cc1ccccc1)NC(=O)[C@H](CO)NC(=O)[C@H](CO)NC(=O)[C@H](CCCNC(=N)N)NC(=O)[C@H](CCC(N)=O)NC(=O)[C@H](CC(C)C)NC(=O)[C@H](Cc1ccccc1)NC(=O)[C@H](CCCC(=O)O)NC(=O)[C@H](C)NC(=O)[C@H](CC(C)C)NC(=O)[C@H](CCCNC(=N)N)NC(=O)[C@H](CCC(=O)O)NC(=O)[C@@H](NC(=O)[C@H](C)NC(=O)[C@@H]1CSSC[C@H](NC(=O)[C@H](CCCNC(=N)N)NC(=O)CC[C@H](NC(=O)CCCCCCCCCCCCCCCCCCC(=O)O)C(=O)O)C(=O)NCC(=O)N[C@@H]([C@@H](C)O)C(=O)N[C@@H](C)C(=O)N[C@@H]([C@@H](C)O)C(=O)N1)[C@@H](C)O [Compound 55, [19CD]-isoGlu-R-C( )-GTAT-C( )-ATERLA-Aad-FLQRSSF-Gly(Me)-A-Ile(Me)-LSSTEVGSNT-Hyp-NH2] ({C20 diacid-γGlu}-RCGTATCATERLA[Aad]FLQRSSF[Sar]A[NMeI]LSSTEVGSNT[Hyp]-NH2; disulfide 2-7)	FND	FND	FND		0.08
CC[C@H](C)[C@@H](C(=O)N[C@@H](CC(C)C)C(=O)N[C@@H](CO)C(=O)N[C@@H](CO)C(=O)N[C@H](C(=O)N[C@@H](CCC(=O)O)C(=O)N[C@H](C(=O)NCC(=O)N[C@@H](CO)C(=O)N[C@@H](CC(N)=O)C(=O)N[C@H](C(=O)N1C[C@H](O)C[C@H]1C(N)=O)[C@@H](C)O)C(C)C)[C@@H](C)O)N(C)C(=O)[C@H](C)NC(=O)CN(C)C(=O)[C@H](Cc1ccccc1)NC(=O)[C@H](CO)NC(=O)[C@H](CO)NC(=O)[C@H](CCCNC(=N)N)NC(=O)[C@H](CCC(N)=O)NC(=O)[C@H](CC(C)C)NC(=O)[C@H](Cc1ccccc1)NC(=O)[C@H](Cc1c[nH]cn1)NC(=O)[C@H](C)NC(=O)[C@H](CC(C)C)NC(=O)[C@H](CCCNC(=N)N)NC(=O)[C@H](CCC(=O)O)NC(=O)[C@@H](NC(=O)[C@H](C)NC(=O)[C@@H]1CSSC[C@H](NC(=O)[C@H](CCCNC(=N)N)NC(=O)CC[C@H](NC(=O)CCCCCCCCCCCCCCCCCCC(=O)O)C(=O)O)C(=O)N[C@@H](CCC(N)=O)C(=O)N[C@@H]([C@@H](C)O)C(=O)N[C@@H](C)C(=O)N[C@@H]([C@@H](C)O)C(=O)N1)[C@@H](C)O [Compound 57, [19CD]-isoGlu-R-C( )-QTAT-C( )-ATERLAHFLQRSSF-Gly(Me)-A-Ile(Me)-LSSTEVGSNT-Hyp-NH2] ({C20 diacid-γGlu}-RCQTATCATERLAHFLQRSSF[Sar]A[NMeI]LSSTEVGSNT[Hyp]-NH2; disulfide 2-7)	FND	FND	FND		0.11
CC[C@H](C)[C@@H](C(=O)N[C@@H](CC(C)C)C(=O)N[C@@H](CO)C(=O)N[C@@H](CO)C(=O)N[C@H](C(=O)N[C@@H](CCC(=O)O)C(=O)N[C@H](C(=O)NCC(=O)N[C@@H](CO)C(=O)NCC(=O)N[C@H](C(=O)N1C[C@H](O)C[C@H]1C(N)=O)[C@@H](C)O)C(C)C)[C@@H](C)O)N(C)C(=O)[C@H](C)NC(=O)CN(C)C(=O)[C@H](Cc1ccccc1)NC(=O)[C@H](CO)NC(=O)[C@H](CO)NC(=O)[C@H](CCCNC(=N)N)NC(=O)[C@H](CCC(N)=O)NC(=O)[C@H](CC(C)C)NC(=O)[C@H](Cc1ccccc1)NC(=O)[C@H](Cc1c[nH]cn1)NC(=O)[C@H](C)NC(=O)[C@H](CC(C)C)NC(=O)[C@H](CCCNC(=N)N)NC(=O)[C@H](CCC(N)=O)NC(=O)[C@@H](NC(=O)[C@H](C)NC(=O)[C@@H]1CSSC[C@H](NC(=O)[C@H](CCCNC(=N)N)NC(=O)CC[C@H](NC(=O)CCCCCCCCCCCCCCCCCCC(=O)O)C(=O)O)C(=O)N[C@@H](CC(N)=O)C(=O)N[C@@H]([C@@H](C)O)C(=O)N[C@@H](C)C(=O)N[C@@H]([C@@H](C)O)C(=O)N1)[C@@H](C)O [Compound 71, [19CD]-isoGlu-R-C( )-NTAT-C( )-ATQRLAHFLQRSSF-Gly(Me)-A-Ile(Me)-LSSTEVGSGT-Hyp-NH2] ({C20 diacid-γGlu}-RCNTATCATQRLAHFLQRSSF[Sar]A[NMeI]LSSTEVGSGT[Hyp]-NH2; disulfide 2-7)	FND	FD	FD		0.18
